Source: ChEMBL document CHEMBL4376854, “Investigation of the Adrenergic and Opioid Binding Affinities, Metabolic Stability, Plasma Protein Binding Properties, and Functional Effects of Selected Indole-Based Kratom Alkaloids” (J Med Chem, 2020)
The source made the active and inactive calls. The calls are words filed in the database; no cut-off is given here.

Columns and labels:
[1] = target: T1, Alpha-1D adrenergic receptor (Homo sapiens, UniProt P25100); test: Displacement of [3H]prazosin from human recombinant adrenergic alpha-1D receptor expressed in CHO cell membranes incubated for 60 mins
T1 sequence (P25100 whole entry): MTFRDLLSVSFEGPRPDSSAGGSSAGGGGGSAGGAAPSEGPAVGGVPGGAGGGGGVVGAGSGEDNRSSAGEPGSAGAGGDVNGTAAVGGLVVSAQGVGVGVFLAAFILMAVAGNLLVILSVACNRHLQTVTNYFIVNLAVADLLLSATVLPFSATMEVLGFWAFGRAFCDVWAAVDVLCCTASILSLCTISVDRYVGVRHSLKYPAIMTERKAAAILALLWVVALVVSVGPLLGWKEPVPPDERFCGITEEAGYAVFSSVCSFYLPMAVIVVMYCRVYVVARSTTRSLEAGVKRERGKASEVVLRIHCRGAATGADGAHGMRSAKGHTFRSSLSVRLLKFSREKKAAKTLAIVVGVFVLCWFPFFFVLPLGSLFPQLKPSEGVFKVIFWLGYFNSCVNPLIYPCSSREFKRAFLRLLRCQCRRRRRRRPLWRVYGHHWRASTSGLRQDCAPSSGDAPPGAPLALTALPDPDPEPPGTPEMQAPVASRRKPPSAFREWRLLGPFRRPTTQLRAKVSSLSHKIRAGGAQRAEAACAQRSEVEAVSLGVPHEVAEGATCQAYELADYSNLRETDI

[2] = target: T2, Alpha-2A adrenergic receptor (Homo sapiens) (UniProt P08913); conditions: CHO, 100 nM
T2 sequence (whole entry): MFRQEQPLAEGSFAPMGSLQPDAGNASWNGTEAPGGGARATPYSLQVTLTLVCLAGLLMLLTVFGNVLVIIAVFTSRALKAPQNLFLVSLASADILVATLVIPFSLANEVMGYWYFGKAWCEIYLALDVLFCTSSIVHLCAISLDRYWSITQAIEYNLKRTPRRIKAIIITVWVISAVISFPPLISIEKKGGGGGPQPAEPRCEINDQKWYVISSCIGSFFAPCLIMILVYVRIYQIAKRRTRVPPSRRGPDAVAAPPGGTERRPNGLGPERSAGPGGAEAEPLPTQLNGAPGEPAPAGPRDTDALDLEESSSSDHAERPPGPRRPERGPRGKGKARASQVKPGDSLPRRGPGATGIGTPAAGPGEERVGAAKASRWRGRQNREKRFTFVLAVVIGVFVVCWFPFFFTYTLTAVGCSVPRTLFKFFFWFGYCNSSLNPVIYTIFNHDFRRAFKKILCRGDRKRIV

[3] = target: T3, Alpha-2C adrenergic receptor (Homo sapiens, UniProt P18825); test: biochemical
T3 sequence (P18825 whole entry): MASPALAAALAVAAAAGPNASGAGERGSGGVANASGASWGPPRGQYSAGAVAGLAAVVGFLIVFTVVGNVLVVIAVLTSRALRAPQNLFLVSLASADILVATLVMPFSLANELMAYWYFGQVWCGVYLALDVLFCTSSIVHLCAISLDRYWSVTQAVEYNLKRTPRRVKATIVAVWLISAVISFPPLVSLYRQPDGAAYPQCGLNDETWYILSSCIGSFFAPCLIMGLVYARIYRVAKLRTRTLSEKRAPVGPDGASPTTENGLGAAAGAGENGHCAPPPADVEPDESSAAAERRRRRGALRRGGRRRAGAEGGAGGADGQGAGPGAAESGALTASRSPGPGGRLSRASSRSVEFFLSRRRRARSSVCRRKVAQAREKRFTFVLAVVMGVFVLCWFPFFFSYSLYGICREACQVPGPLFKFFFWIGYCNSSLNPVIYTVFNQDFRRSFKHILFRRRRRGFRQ

[4] = target: T4, Alpha-2B adrenergic receptor (Homo sapiens) (UniProt P18089); conditions: CHO, 10000 nM
T4 sequence (whole entry): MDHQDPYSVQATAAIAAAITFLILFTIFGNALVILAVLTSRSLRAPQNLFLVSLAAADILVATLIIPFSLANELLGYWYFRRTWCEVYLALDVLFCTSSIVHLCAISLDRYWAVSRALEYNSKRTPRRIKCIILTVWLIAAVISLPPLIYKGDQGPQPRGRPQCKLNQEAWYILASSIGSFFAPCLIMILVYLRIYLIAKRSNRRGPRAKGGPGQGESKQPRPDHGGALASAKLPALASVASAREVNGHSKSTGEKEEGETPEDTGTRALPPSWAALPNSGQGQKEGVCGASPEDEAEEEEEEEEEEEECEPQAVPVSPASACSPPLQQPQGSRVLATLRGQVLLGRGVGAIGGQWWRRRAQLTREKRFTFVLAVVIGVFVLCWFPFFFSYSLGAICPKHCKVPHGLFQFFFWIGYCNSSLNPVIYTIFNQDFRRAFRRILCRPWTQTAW

[5] = human, plasma, 1 µM
[6] = target: T5, Alpha-1A adrenergic receptor (Homo sapiens) (UniProt P35348); test: Partial agonist activity at human recombinant adrenergic alpha-1A receptor expressed in CHO cells assessed as stimulation of intracellular calcium levels incubated at room temperature by fluorimetry; format: functional, cell-based
T5 sequence (whole entry): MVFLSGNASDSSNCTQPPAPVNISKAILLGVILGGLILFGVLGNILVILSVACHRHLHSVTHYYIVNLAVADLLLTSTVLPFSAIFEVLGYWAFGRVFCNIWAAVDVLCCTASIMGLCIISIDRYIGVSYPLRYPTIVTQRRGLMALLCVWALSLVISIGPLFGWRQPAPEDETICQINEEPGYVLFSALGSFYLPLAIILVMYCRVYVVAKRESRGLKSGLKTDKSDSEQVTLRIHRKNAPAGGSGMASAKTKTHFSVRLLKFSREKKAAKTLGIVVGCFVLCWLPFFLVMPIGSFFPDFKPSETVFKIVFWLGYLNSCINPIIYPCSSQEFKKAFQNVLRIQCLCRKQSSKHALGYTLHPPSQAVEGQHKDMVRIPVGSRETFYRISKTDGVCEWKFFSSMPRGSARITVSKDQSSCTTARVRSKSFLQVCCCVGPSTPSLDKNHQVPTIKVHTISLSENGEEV

[7] = target: T6, Alpha-1D adrenergic receptor (Homo sapiens) (UniProt P25100); test: Partial agonist activity at human recombinant adrenergic alpha-1D receptor expressed in rat RBL cells assessed as stimulation of intracellular calcium levels incubated at room temperature by fluorimetry; format: functional, cell-based
T6 sequence (whole entry): T1 sequence (P25100 whole entry)

[8] = target: T7, Alpha-2A adrenergic receptor (Homo sapiens, UniProt P08913); test: biochemical
T7 sequence (P08913 whole entry): T2 sequence (whole entry)

| Structure (SMILES) | Ki [1] [µM] | inhibition [2] [%] | Ki [3] [µM] | inhibition [4] [%] | Fu [5] | Activity [6] | Activity [7] | Ki [8] [µM] |
| --- | --- | --- | --- | --- | --- | --- | --- | --- |
| CC[C@@H]1CN2CCc3c([nH]c4cccc(OC)c34)[C@@H]2C[C@@H]1/C(=C\OC)C(=O)OC | 5.48 | -8 | 2.32 | 25.1 | 0.02 | Active | Active | 4.72 |
| CC[C@@H]1CN2CCc3c([nH]c4cccc(OC)c34)[C@H]2C[C@@H]1/C(=C\OC)C(=O)OC |  | 7 |  | 67.2 | 0.01 |  |  |  |
